# Measured values: article PMC5218480 (PLoS ONE, 2017)
# Test system: MV-4-11 cells
# Assay: Gene expression microarray analysis (Affymetrix PrimeView) and GSEA
# Type: cell-based, human
# Design: RFU PODN (11730768_x_at) / Fold change /veh PODN (11730768_x_at) / RFU LINC00158 (11744669_a_at) / Fold change /veh LINC00158 (11744669_a_at) / RFU DUSP10 (11751237_a_at) / Fold change /veh DUSP10 (11751237_a_at) / RFU ID3 (11757404_x_at) / Fold change /veh ID3 (11757404_x_at) / RFU PLEKHG5 (11737974_s_at) / Fold change /veh PLEKHG5 (11737974_s_at) / RFU LRRC4B (11730491_at) / Fold change /veh LRRC4B (11730491_at) / RFU GIMAP4 (11747438_a_at) / Fold change /veh GIMAP4 (11747438_a_at) / RFU KRT8 (11758183_x_at) / Fold change /veh KRT8 (11758183_x_at) / RFU CNN1 (11734310_a_at) / Fold change /veh CNN1 (11734310_a_at) / RFU VPS37D (11726825_at) / Fold change /veh VPS37D (11726825_at) / RFU C10orf10 (11716522_x_at) / Fold change /veh C10orf10 (11716522_x_at) / RFU KIR2DL2 /// KIR2DL4 /// KIR2DL5A /// KIR2DL5B /// KIR2DS1 /// KIR2DS2 /// KIR2DS3 /// KIR2DS4 /// KIR3DL3 /// KIR3DL3 /// KIR3DS1 (11738374_at) / Fold change /veh KIR2DL2 /// KIR2DL4 /// KIR2DL5A /// KIR2DL5B /// KIR2DS1 /// KIR2DS2 /// KIR2DS3 /// KIR2DS4 /// KIR3DL3 /// KIR3DL3 /// KIR3DS1 (11738374_at) / RFU C1QL1 (11718748_at) / Fold change /veh C1QL1 (11718748_at) / RFU TMPRSS4 (11747572_a_at) / Fold change /veh TMPRSS4 (11747572_a_at) / RFU HAMP (11756126_x_at) / Fold change /veh HAMP (11756126_x_at) / RFU RNFT2 (11725882_a_at) / Fold change /veh RNFT2 (11725882_a_at) / RFU NR4A2 (11747474_a_at) / Fold change /veh NR4A2 (11747474_a_at) / RFU ABCC12 (11746883_a_at) / Fold change /veh ABCC12 (11746883_a_at) / RFU TMEM136 (11760407_x_at) / Fold change /veh TMEM136 (11760407_x_at) / RFU CLDN22 /// WWC2 (11732394_at) / Fold change /veh CLDN22 /// WWC2 (11732394_at) / RFU HLA-DPB1 (11760878_x_at) / Fold change /veh HLA-DPB1 (11760878_x_at) / RFU SPINT1 (11716480_a_at) / Fold change /veh SPINT1 (11716480_a_at) / RFU GAP43 (11754022_s_at) / Fold change /veh GAP43 (11754022_s_at) / RFU A4GNT (11735810_at) / Fold change /veh A4GNT (11735810_at) / RFU PRB3 (11715151_x_at) / Fold change /veh PRB3 (11715151_x_at) / RFU TUBB4B (11761932_at) / Fold change /veh TUBB4B (11761932_at) / RFU CAPN14 (11732068_a_at) / Fold change /veh CAPN14 (11732068_a_at) / RFU TMCC2 (11721928_a_at) / Fold change /veh TMCC2 (11721928_a_at) / RFU IRGQ (11745062_a_at) / Fold change /veh IRGQ (11745062_a_at) / RFU FAM174B (11720279_a_at) / Fold change /veh FAM174B (11720279_a_at) / RFU TMPRSS4 (11748680_a_at) / Fold change /veh TMPRSS4 (11748680_a_at) / RFU FAM212B (11763350_a_at) / Fold change /veh FAM212B (11763350_a_at) / RFU PLEKHG5 (11743358_a_at) / Fold change /veh PLEKHG5 (11743358_a_at) / RFU ZSCAN30 (11745921_a_at) / Fold change /veh ZSCAN30 (11745921_a_at) / RFU CMKLR1 (11741424_a_at) / Fold change /veh CMKLR1 (11741424_a_at) / RFU LOC101060620 /// MAPK8IP1 (11723275_at) / Fold change /veh LOC101060620 /// MAPK8IP1 (11723275_at) / RFU SPTSSB (11747773_x_at) / Fold change /veh SPTSSB (11747773_x_at) / RFU PRSS12 (11739890_at) / Fold change /veh PRSS12 (11739890_at) / RFU BIN1 (11741810_x_at) / Fold change /veh BIN1 (11741810_x_at) / RFU WNT11 (11732464_a_at) / Fold change /veh WNT11 (11732464_a_at) / RFU C10orf10 (11716521_a_at) / Fold change /veh C10orf10 (11716521_a_at) / RFU C5orf56 (11738089_at) / Fold change /veh C5orf56 (11738089_at) / RFU CYB561 (11721691_x_at) / Fold change /veh CYB561 (11721691_x_at) / RFU ANKRD19P (11752326_a_at) / Fold change /veh ANKRD19P (11752326_a_at) / RFU OR2T12 /// OR2T33 /// OR2T8 (11738714_s_at) / Fold change /veh OR2T12 /// OR2T33 /// OR2T8 (11738714_s_at) / RFU VCAN (11748164_a_at) / Fold change /veh VCAN (11748164_a_at) / RFU JSRP1 (11732532_at) / Fold change /veh JSRP1 (11732532_at) / RFU KRTAP10-11 (11738290_x_at) / Fold change /veh KRTAP10-11 (11738290_x_at) / RFU MYO3A (11730013_a_at) / Fold change /veh MYO3A (11730013_a_at) / RFU EBF3 (11725865_a_at) / Fold change /veh EBF3 (11725865_a_at) / RFU CAMK2N1 (11719241_x_at) / Fold change /veh CAMK2N1 (11719241_x_at) / RFU C5orf56 (11738088_a_at) / Fold change /veh C5orf56 (11738088_a_at) / RFU OLFML3 (11715873_a_at) / Fold change /veh OLFML3 (11715873_a_at) / RFU LOC100653217 /// NTM (11731650_a_at) / Fold change /veh LOC100653217 /// NTM (11731650_a_at) / RFU MAPK11 (11762145_a_at) / Fold change /veh MAPK11 (11762145_a_at) / RFU FIZ1 (11724087_x_at) / Fold change /veh FIZ1 (11724087_x_at) / RFU OASL (11726364_x_at) / Fold change /veh OASL (11726364_x_at) / RFU SOX15 (11748057_x_at) / Fold change /veh SOX15 (11748057_x_at) / RFU CD79A (11719716_a_at) / Fold change /veh CD79A (11719716_a_at) / RFU HIST1H1D (11736915_at) / Fold change /veh HIST1H1D (11736915_at) / RFU CASKIN2 (11723855_a_at) / Fold change /veh CASKIN2 (11723855_a_at) / RFU LOC730098 (11760151_x_at) / Fold change /veh LOC730098 (11760151_x_at) / RFU OR4N2 (11742367_at) / Fold change /veh OR4N2 (11742367_at) / RFU PRRT2 (11749266_a_at) / Fold change /veh PRRT2 (11749266_a_at) / RFU SNX32 (11753110_a_at) / Fold change /veh SNX32 (11753110_a_at) / RFU CDHR5 (11726645_a_at) / Fold change /veh CDHR5 (11726645_a_at) / RFU RCAN1 (11760418_a_at) / Fold change /veh RCAN1 (11760418_a_at) / RFU FAM167A (11723789_a_at) / Fold change /veh FAM167A (11723789_a_at) / RFU FAM26E (11764081_at) / Fold change /veh FAM26E (11764081_at) / RFU ISYNA1 (11749810_s_at) / Fold change /veh ISYNA1 (11749810_s_at) / RFU ACY1 (11761880_at) / Fold change /veh ACY1 (11761880_at) / RFU 11764098_at / Fold change /veh 11764098_at / RFU SAMD14 (11745864_x_at) / Fold change /veh SAMD14 (11745864_x_at) / RFU NPB (11741838_a_at) / Fold change /veh NPB (11741838_a_at) / RFU TMPRSS6 (11731388_a_at) / Fold change /veh TMPRSS6 (11731388_a_at) / RFU KRTAP10-2 (11738614_at) / Fold change /veh KRTAP10-2 (11738614_at) / RFU ARHGAP8 /// PRR5-ARHGAP8 (11727945_x_at) / Fold change /veh ARHGAP8 /// PRR5-ARHGAP8 (11727945_x_at) / RFU KRTAP5-7 /// NADSYN1 (11734609_at) / Fold change /veh KRTAP5-7 /// NADSYN1 (11734609_at) / RFU RASL12 (11751679_a_at) / Fold change /veh RASL12 (11751679_a_at) / RFU CDKN2B (11736163_a_at) / Fold change /veh CDKN2B (11736163_a_at) / RFU PRF1 (11729649_at) / Fold change /veh PRF1 (11729649_at) / RFU, ZNF638 /// ZNF638-IT1 / Fold change vs veh, ZNF638 /// ZNF638-IT1 / RFU, PANK3 / Fold change vs veh, PANK3 / RFU, SH3YL1 / Fold change vs veh, SH3YL1 / RFU, ZEB2 / Fold change vs veh, ZEB2 / RFU, NRIP1 / Fold change vs veh, NRIP1 / RFU, PTTG1IP / Fold change vs veh, PTTG1IP / RFU, CAPN2 / Fold change vs veh, CAPN2 / RFU, MED14 / Fold change vs veh, MED14 / RFU, SNORA58 / Fold change vs veh, SNORA58 / RFU, C1orf63 / Fold change vs veh, C1orf63 / RFU, LRRFIP1 / Fold change vs veh, LRRFIP1 / RFU, NDUFAF7 / Fold change vs veh, NDUFAF7 / RFU, SLC12A2 / Fold change vs veh, SLC12A2 / RFU, IBTK / Fold change vs veh, IBTK / RFU, ESF1 / Fold change vs veh, ESF1 / Fold change vs veh, TMEM50B / RFU, TAOK1 / Fold change vs veh, TAOK1 / RFU, ACBD3 / Fold change vs veh, ACBD3 / RFU, TMA16 / Fold change vs veh, TMA16 / RFU, RWDD3 / Fold change vs veh, RWDD3 / RFU, BCAT1 / Fold change vs veh, BCAT1 / RFU, EDEM3 / Fold change vs veh, EDEM3 / RFU, TMEM33 / Fold change vs veh, TMEM33 / RFU, WDR75 / Fold change vs veh, WDR75 / RFU, AHCTF1 / Fold change vs veh, AHCTF1 / RFU, TFRC / Fold change vs veh, TFRC / RFU, ZDHHC17 / Fold change vs veh, ZDHHC17 / RFU, NOM1 / Fold change vs veh, NOM1 / RFU, ARL8B / Fold change vs veh, ARL8B / RFU, ZBTB11 / Fold change vs veh, ZBTB11 / RFU, TAMM41 / Fold change vs veh, TAMM41 / RFU, KIAA1704 /// LOC100996395 / Fold change vs veh, KIAA1704 /// LOC100996395 / RFU, ING1 / Fold change vs veh, ING1 / RFU, TRMT61B / Fold change vs veh, TRMT61B / RFU, FUBP3 / Fold change vs veh, FUBP3 / RFU, TP53 / Fold change vs veh, TP53 / RFU, TNKS2 / Fold change vs veh, TNKS2 / RFU, ZFP14 / Fold change vs veh, ZFP14 / RFU, ACTR2 / Fold change vs veh, ACTR2 / RFU, PPP3R1 / Fold change vs veh, PPP3R1 / RFU, PIK3R1 / Fold change vs veh, PIK3R1 / RFU, HNRNPA1 / Fold change vs veh, HNRNPA1 / RFU, RNF170 / Fold change vs veh, RNF170 / RFU, ZNF28 / Fold change vs veh, ZNF28 / RFU, RNGTT / Fold change vs veh, RNGTT / RFU, OGT / Fold change vs veh, OGT / RFU, BRD1 / Fold change vs veh, BRD1 / RFU, MARS / Fold change vs veh, MARS / RFU, ZNF655 / Fold change vs veh, ZNF655 / RFU, FAHD1 / Fold change vs veh, FAHD1 / RFU, BDP1 / Fold change vs veh, BDP1 / RFU, LRRCC1 / Fold change vs veh, LRRCC1 / RFU, ARID1A / Fold change vs veh, ARID1A / RFU, ZNF146 / Fold change vs veh, ZNF146 / RFU, ZNF330 / Fold change vs veh, ZNF330 / RFU, GPN3 / Fold change vs veh, GPN3 / RFU, C9orf123 / Fold change vs veh, C9orf123 / RFU, N4BP2L2 / Fold change vs veh, N4BP2L2 / RFU, ARFIP1 / Fold change vs veh, ARFIP1 / RFU, FAM179B / Fold change vs veh, FAM179B / RFU, BCL10 / Fold change vs veh, BCL10 / RFU, UHRF1BP1L / Fold change vs veh, UHRF1BP1L / RFU, BET1 / Fold change vs veh, BET1 / RFU, CNOT2 / Fold change vs veh, CNOT2 / RFU, ZNF268 / Fold change vs veh, ZNF268 / Fold change vs veh, ZNF507 / RFU, DGCR2 / Fold change vs veh, DGCR2 / RFU, WDSUB1 / Fold change vs veh, WDSUB1 / Fold change vs veh, HSP90B1 /// MIR3652 / RFU, ADSS / Fold change vs veh, ADSS / RFU, GK / Fold change vs veh, GK / RFU, ZNF148 / Fold change vs veh, ZNF148 / RFU, TAF9 / Fold change vs veh, TAF9 / RFU, SLC1A5 / Fold change vs veh, SLC1A5 / RFU, SLMO2 / Fold change vs veh, SLMO2 / RFU, ABCC4 / Fold change vs veh, ABCC4 / RFU, LOC101060439 /// RAP1B / Fold change vs veh, LOC101060439 /// RAP1B / RFU, RFX7 / Fold change vs veh, RFX7 / RFU, GTPBP10 / Fold change vs veh, GTPBP10 / RFU, CNEP1R1 / Fold change vs veh, CNEP1R1 / RFU, BIVM-ERCC5 /// ERCC5 / Fold change vs veh, BIVM-ERCC5 /// ERCC5 / RFU, ILF3 / Fold change vs veh, ILF3 / RFU 11762660_at / Fold change /veh 11762660_at / RFU VCAN (11757783_s_at) / Fold change /veh VCAN (11757783_s_at) / RFU DDX43 (11728927_at) / Fold change /veh DDX43 (11728927_at) / RFU KRT8 (11758188_x_at) / Fold change /veh KRT8 (11758188_x_at) / RFU NKD1 (11759106_at) / Fold change /veh NKD1 (11759106_at) / RFU SRD5A1 (11742802_a_at) / Fold change /veh SRD5A1 (11742802_a_at) / RFU TPSAB1 /// TPSB2 (11721975_s_at) / Fold change /veh TPSAB1 /// TPSB2 (11721975_s_at) / RFU GSTM3 (11746129_a_at) / Fold change /veh GSTM3 (11746129_a_at) / RFU IL23R (11737362_x_at) / Fold change /veh IL23R (11737362_x_at) / RFU TMEM51 (11727254_a_at) / Fold change /veh TMEM51 (11727254_a_at) / RFU PIWIL2 (11732686_x_at) / Fold change /veh PIWIL2 (11732686_x_at) / RFU ORM1 (11744905_x_at) / Fold change /veh ORM1 (11744905_x_at) / RFU CCDC152 (11743942_at) / Fold change /veh CCDC152 (11743942_at) / RFU ECM1 (11717891_a_at) / Fold change /veh ECM1 (11717891_a_at) / RFU IL23R (11748794_a_at) / Fold change /veh IL23R (11748794_a_at) / RFU TNFAIP8L3 (11732012_x_at) / Fold change /veh TNFAIP8L3 (11732012_x_at) / RFU MBOAT4 (11741988_at) / Fold change /veh MBOAT4 (11741988_at) / RFU 11764193_at / Fold change /veh 11764193_at / RFU TMEM53 (11763286_at) / Fold change /veh TMEM53 (11763286_at) / RFU MAGEB2 (11727129_at) / Fold change /veh MAGEB2 (11727129_at) / RFU TMEM200A (11744735_a_at) / Fold change /veh TMEM200A (11744735_a_at) / RFU CCDC152 (11751479_a_at) / Fold change /veh CCDC152 (11751479_a_at) / RFU FAM211A (11726209_a_at) / Fold change /veh FAM211A (11726209_a_at) / RFU RGS16 (11746705_a_at) / Fold change /veh RGS16 (11746705_a_at) / RFU VCAN (11755009_s_at) / Fold change /veh VCAN (11755009_s_at) / RFU RHOB (11743442_s_at) / Fold change /veh RHOB (11743442_s_at) / RFU RGS16 (11720943_a_at) / Fold change /veh RGS16 (11720943_a_at) / RFU RGS16 (11720944_at) / Fold change /veh RGS16 (11720944_at) / RFU, VPS4B / Fold change vs veh, VPS4B / RFU, CREB1 / Fold change vs veh, CREB1 / RFU, DNAJC13 / Fold change vs veh, DNAJC13 / RFU, GNAQ / Fold change vs veh, GNAQ / RFU, CDK5R1 / Fold change vs veh, CDK5R1 / RFU, ZRANB3 / Fold change vs veh, ZRANB3 / RFU, CUL4A / Fold change vs veh, CUL4A / RFU, CCNY / Fold change vs veh, CCNY / RFU, UFL1 / Fold change vs veh, UFL1 / RFU, COG3 / Fold change vs veh, COG3 / RFU, DIAPH2 / Fold change vs veh, DIAPH2 / RFU, SKA2 / Fold change vs veh, SKA2 / RFU, AFF3 / Fold change vs veh, AFF3 / RFU, LMF1 / Fold change vs veh, LMF1 / RFU, IPO11 / Fold change vs veh, IPO11 / RFU, DFFB / Fold change vs veh, DFFB / RFU, FOXP1 / Fold change vs veh, FOXP1 / RFU, CARD8 / Fold change vs veh, CARD8 / RFU, STRN3 / Fold change vs veh, STRN3 / RFU, ADK / Fold change vs veh, ADK / RFU, RASSF2 / Fold change vs veh, RASSF2 / RFU, WIPF1 / Fold change vs veh, WIPF1 / RFU, LARP1B / Fold change vs veh, LARP1B / RFU, RASA1 / Fold change vs veh, RASA1 / RFU, RB1 / Fold change vs veh, RB1 / RFU, PPFIA1 / Fold change vs veh, PPFIA1 / RFU, MAT2A / Fold change vs veh, MAT2A / RFU, CCT5 / Fold change vs veh, CCT5 / RFU, WDR92 / Fold change vs veh, WDR92 / RFU, CUX1 / Fold change vs veh, CUX1 / RFU, TTC7A / Fold change vs veh, TTC7A / RFU, TMEM135 / Fold change vs veh, TMEM135 / RFU, DEPTOR / Fold change vs veh, DEPTOR / RFU, CPM / Fold change vs veh, CPM / RFU, DNAJB6 / Fold change vs veh, DNAJB6 / RFU, CACNA2D3 / Fold change vs veh, CACNA2D3 / RFU, DTX4 / Fold change vs veh, DTX4 / RFU, TFCP2 / Fold change vs veh, TFCP2 / RFU, GMCL1 /// GMCL1P1 / Fold change vs veh, GMCL1 /// GMCL1P1 / RFU, AEBP2 / Fold change vs veh, AEBP2 / RFU, SNHG1 /// SNORD22 /// SNORD25 /// SNORD26 /// SNORD27 /// SNORD28 /// SNORD29 /// SNORD31 / Fold change vs veh, SNHG1 /// SNORD22 /// SNORD25 /// SNORD26 /// SNORD27 /// SNORD28 /// SNORD29 /// SNORD31 / Fold change (Aza/veh), C12orf56 (ProbeSet 11735607_a_at) / Fold change (ACY-1035/veh), C12orf56 (ProbeSet 11735607_a_at) / Fold change (Aza/veh), FGFR1OP (ProbeSet 11751329_s_at) / Fold change (ACY-1035/veh), FGFR1OP (ProbeSet 11751329_s_at) / Fold change (Aza/veh), VPS36 (ProbeSet 11739960_a_at) / Fold change (ACY-1035/veh), VPS36 (ProbeSet 11739960_a_at) / RFU SYPL1 (11715823_x_at) / Fold change /veh SYPL1 (11715823_x_at) / RFU IGFBP7 (11715501_s_at) / Fold change /veh IGFBP7 (11715501_s_at) / RFU REEP3 (11722064_at) / Fold change /veh REEP3 (11722064_at) / RFU IGLL1 (11728026_x_at) / Fold change /veh IGLL1 (11728026_x_at): dose or concentration left out as unconfirmed
# Details: ProbeSet 11753623_s_at; LIST D
smiles,measurement,value
Nc1ncn([C@@H]2O[C@H](CO)[C@@H](O)[C@H]2O)c(=O)n1 [azacitidine],"Fold change vs veh, LOC101060439 /// RAP1B",0.77
